A word on the CLint scaled: it is a measure of how fast metabolising enzymes remove a compound, apart from limits set by blood flow. As a reminder, the IC50 is the concentration needed to halve the response being measured. What is called AUC(0-t) is the area under the concentration-time curve up to a stated or last time point.

Series [1] can be described thus: Compound stability in human liver microsomes. The following applies: pH 7.4; for half-life at 5 μM: human liver microsomes 0.5 mg protein/mL, compound 5 μM, NADPH 1.0 mM, 37° C., read-out: Human T1/2; for CLint scaled at 5 μM: human liver microsomes, in vivo CLint extrapolated. It is filed as in vitro ADME. The procedure: (§1) Human or rat liver microsomes incubations were conducted in duplicate in polypropylene tubes. The typical incubation mixtures consisted of human or rat liver microsomes (0.5 mg protein/mL), compounds of interest (5 μM) and NADPH (1.0 mM) in a total volume of 200 μL potassium phosphate buffer (PBS, 100 mM, pH 7.4). Compounds were dissolved in DMSO and diluted with PBS such that the final concentration of DMSO was 0.05%. The enzymatic reactions were commenced with the addition of protein after a 3-min preincubation and incubated in a water bath open to the air at 37° C. Reactions were terminated at various time points (0, 5, 10, 15, 30, 60 min) by adding equal volume of ice-cold acetonitrile. The samples were stored at −80° C. until LC/MS/MS assays.
(§2) The concentrations of compounds in the incubation mixtures of human or rat liver microsomes were determined by a LC/MS/MS method. The ranges of the linearity in the concentration range were determined for each tested compounds.
(§3) A parallel incubation was performed using denatured microsomes as the negative control, and reactions were terminated at various time points (0, 15, 60 min) after incubation at 37° C.
(§4) Dextromethorphan (70 μM) was selected as the positive control, and reactions were terminated at various time points (0, 5, 10, 15, 30, 60 min) after incubation at 37° C. Both positive and negative control samples were included in each assay to ensure the integrity of the microsomal incubation system.
(§5) The concentrations of compounds in human or rat liver microsome incubations were plotted as a percentage of the relevant zero time point control for each reaction. The in vivo CLint were extrapolated (ref.: Naritomi, Y.; Terashita, S.; Kimura, S.; Suzuki, A.; Kagayama, A.; and Sugiyama, Y.; Prediction of human hepatic clearance from in vivo animal experiments and in vitro metabolic studies with liver microsomes from animals and humans. Drug Metab. Dispos., 2001, 29: 1316-1324).

A short description of series [2]: Compound stability in rat liver microsomes. In kind it is in vitro ADME. Conditions: pH 7.4; for half-life at 5 μM: rat liver microsomes 0.5 mg protein/mL, compound 5 μM, NADPH 1.0 mM, 37° C., read-out: Rat T1/2; for CLint scaled at 5 μM: rat liver microsomes, in vivo CLint extrapolated. The procedure: as §1, §2, §3, §4, §5
The target in the next series is Aurora-A (h) (Homo sapiens (Human), UniProt O14965). Nature of the series: Aurora-A (h) kinase activity assay. In kind it is biochemical. The method, then:
(§6) The above assay procedure can be used to determine the IC50 for inhibition and/or the inhibition constant, Ki. The IC50 is defined as the concentration of compound required to reduce the enzyme activity by 50% under the condition of the assay. The IC50 value is estimated by preparing a 10 point curve using a ½ log dilution series (for example, a typical curve may be prepared using the following compound concentrations: 3 μM, 1 μM, 0.3 μM, 0.1 μM, 0.03 μM, 0.01 μM, 0.003 μM, 0.001 μM, 0.0003 μM and 0 μM).
Aurora-A (h) is incubated with 8 mM MOPS pH 7.0, 0.2 mM EDTA, 200 μM LRRASLG (Kemptide), 10 mM MgAcetate and [γ-^33P-ATP] (specific activity approx. 500 cpm/pmol, concentration as required). The reaction is initiated by the addition of the MgATP mix. After incubation for 40 minutes at room temperature, the reaction is stopped by the addition of 3% phosphoric acid solution. 10 μL of the reaction is then spotted onto a P30 filtermat and washed three times for 5 minutes in 75 mM phosphoric acid and once in methanol prior to drying and scintillation counting.
(§7) The kinase assays described herein were performed at Millipore UK Ltd, Dundee Technology Park, Dundee DD2 1SW, UK.

Another series concerns the target JAK1 (h) (Homo sapiens (Human), UniProt P23458). Nature of the series: JAK1 (h) kinase activity assay. In kind it is biochemical. The procedure:
as §6
JAK1 (h) is incubated with 20 mM Tris/HCl pH 7.5, 0.2 mM EDTA, 500 μM GEEPLYWSFPAKKK, 10 mM MgAcetate and [γ-^33P-ATP] (specific activity approx. 500 cpm/pmol, concentration as required). The reaction is initiated by the addition of the MgATP mix. After incubation for 40 minutes at room temperature, the reaction is stopped by the addition of 3% phosphoric acid solution. 10 μL of the reaction is then spotted onto a P30 filtermat and washed three times for 5 minutes in 75 mM phosphoric acid and once in methanol prior to drying and scintillation counting.
as §7

Series [3] in a line: Pharmacokinetics after intravenous and oral administration in rats. In kind it is in vivo. Conditions: for Clearance (CL) after iv dosing / AUC(0-t) / half-life / Vd: dose 1 mg/kg, iv dosing; for F: oral bioavailability, iv dose 1 mg/kg; for AUC(0-t) / half-life / Vd: rat, plasma; for Vd: read-out: Vss. The procedure: The compounds disclosed herein are assessed in pharmacokinetic studies in mice, rats, dogs or monkeys. The compounds are administered as a water solution, 2% HPMC+1% TWEEN®80 in water solution, 5% DMSO+5% solutol in saline, 4% MC suspension or capsule. For the intravenous administration, the animals are generally given at 0.5, 1 or 2 mg/kg dose. For the oral (p.o.) dosing, mice and rats are generally given 0.5, 1, 5 or 10 mg/kg dose, and dogs and monkeys are generally given 10 mg/kg dose. The blood samples (0.3 mL) are drawn at 0.25, 0.5, 1.0, 2.0, 3.0, 4.0, 6.0, 8.0, 12 and 24 h time points or 0.083, 0.25, 0.5, 1.0, 2.0, 4.0, 6.0, 8.0 and 24 h time points and centrifuged at 3,000 or 4000 rpm for 2 to 10 min. The plasma solutions are collected, and stored at −20° C. or −70° C. until analyzed by LC/MS/MS as described above.

The structures appear in SMILES notation.

Sequence of Aurora-A (h) (O14965 whole entry): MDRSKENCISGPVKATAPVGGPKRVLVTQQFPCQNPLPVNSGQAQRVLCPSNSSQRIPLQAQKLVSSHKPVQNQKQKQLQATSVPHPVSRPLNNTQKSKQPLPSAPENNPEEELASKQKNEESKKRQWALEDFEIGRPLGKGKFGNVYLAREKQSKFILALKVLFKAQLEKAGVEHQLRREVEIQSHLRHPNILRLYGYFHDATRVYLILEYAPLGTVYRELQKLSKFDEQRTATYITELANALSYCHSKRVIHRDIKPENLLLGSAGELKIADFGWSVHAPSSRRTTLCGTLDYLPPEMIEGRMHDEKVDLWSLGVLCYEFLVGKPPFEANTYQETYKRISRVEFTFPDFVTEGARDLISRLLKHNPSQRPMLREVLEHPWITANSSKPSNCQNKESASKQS
Sequence of JAK1 (h) (P23458 whole entry): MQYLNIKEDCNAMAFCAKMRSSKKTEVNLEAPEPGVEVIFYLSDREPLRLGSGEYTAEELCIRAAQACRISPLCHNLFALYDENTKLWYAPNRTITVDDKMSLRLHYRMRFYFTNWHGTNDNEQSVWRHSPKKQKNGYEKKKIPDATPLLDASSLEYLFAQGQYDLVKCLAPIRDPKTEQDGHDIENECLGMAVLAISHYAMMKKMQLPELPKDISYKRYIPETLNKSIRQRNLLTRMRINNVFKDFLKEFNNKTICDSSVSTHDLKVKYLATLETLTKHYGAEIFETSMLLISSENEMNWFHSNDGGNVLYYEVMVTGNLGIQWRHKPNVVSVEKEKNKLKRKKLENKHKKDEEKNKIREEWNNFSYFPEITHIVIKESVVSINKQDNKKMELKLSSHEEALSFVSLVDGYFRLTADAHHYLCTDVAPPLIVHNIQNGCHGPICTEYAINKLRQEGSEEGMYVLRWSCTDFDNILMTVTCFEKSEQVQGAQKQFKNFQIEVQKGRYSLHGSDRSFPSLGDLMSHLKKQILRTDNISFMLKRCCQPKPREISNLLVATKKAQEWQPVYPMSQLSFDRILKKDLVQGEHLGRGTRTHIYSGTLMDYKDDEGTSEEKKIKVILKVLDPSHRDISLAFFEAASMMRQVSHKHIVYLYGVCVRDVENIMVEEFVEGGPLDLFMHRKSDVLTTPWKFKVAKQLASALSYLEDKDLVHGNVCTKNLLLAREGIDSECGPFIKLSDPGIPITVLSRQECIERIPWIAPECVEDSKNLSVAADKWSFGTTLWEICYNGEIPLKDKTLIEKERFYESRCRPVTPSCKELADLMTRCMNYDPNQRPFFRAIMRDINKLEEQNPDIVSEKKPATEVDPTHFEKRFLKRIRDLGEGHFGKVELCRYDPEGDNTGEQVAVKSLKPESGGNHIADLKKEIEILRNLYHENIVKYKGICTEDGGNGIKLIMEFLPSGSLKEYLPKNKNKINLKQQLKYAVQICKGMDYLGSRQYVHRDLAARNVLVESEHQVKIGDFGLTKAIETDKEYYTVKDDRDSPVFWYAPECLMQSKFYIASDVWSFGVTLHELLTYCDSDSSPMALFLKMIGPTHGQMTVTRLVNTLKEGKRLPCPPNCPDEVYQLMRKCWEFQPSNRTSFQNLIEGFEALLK

Regarding `Cn1cc(Nc2ncc(Cl)c(NC3CC4CN(S(=O)(=O)C5CC5)CC4C3)n2)cn1` (stereo not shown) [Ex. 13, 5-chloro-N^4-(2-(cyclopropylsulfonyl)octahydrocyclopenta[c]pyrrol-5-yl)-N^2-(1-methyl-1H-pyrazol-4-yl)pyrimidine-2,4-diamine], in series [1], the half-life at 5 μM was found to be 33.1 min and the CLint scaled at 5 μM is 52.5 mL/min/kg. In series [2], the half-life at 5 μM was 5.48 min and the intrinsic metabolic clearance (CLint scaled) at 5 μM was 454 mL/min/kg. This compound also showed a half-inhibitory concentration (IC50) against Aurora-A (h) of 5 nM.

With `Cn1cc(Nc2ncc(Cl)c(NC3CC4CN(CC(C)(C)O)CC4C3)n2)cn1` (stereo not shown) [Ex. 16, 1-(5-((5-chloro-2-((1-methyl-1H-pyrazol-4-yl)amino)pyrimidin-4-yl)amino)hexahydrocyclopenta[c]pyrrol-2(1H)-yl)-2-methylpropan-2-ol], in series [1], the half-life at 5 μM stood at 210 min and the intrinsic metabolic clearance (CLint scaled) at 5 μM was 8.27 mL/min/kg. Further, in series [2], the half-life at 5 μM came out at 6.28 min and the intrinsic metabolic clearance (CLint scaled) at 5 μM is 395 mL/min/kg. The same compound gave a concentration for half-maximal inhibition (IC50) at JAK1 (h) of 32 nM.

Take `Cn1cc(Nc2ncc(Cl)c(NC3CC4CN(S(=O)(=O)CC5CC5)CC4C3)n2)cn1` (stereo not shown) [Ex. 17, 5-chloro-N^4-(2-((cyclopropylmethyl)sulfonyl)octahydrocyclopenta[c]pyrrol-5-yl)-N^2-(1-methyl-1H-pyrazol-4-yl)pyrimidine-2,4-diamine]: in series [1], the half-life at 5 μM amounted to 35.7 min and the CLint scaled at 5 μM was 48.6 mL/min/kg. Also, in series [2], the half-life at 5 μM is 7.15 min and the CLint scaled at 5 μM was 347 mL/min/kg. Also, in series [3], the “Clearance (CL) after iv dosing” value came to 54.2 mL/min/kg, the F is reported as 37.3%, the AUC(0-t) was 308 ng·h/mL and the half-life is 17.4 min. Besides, the Vd in series [3] is 1.44 L/kg. Further, half-maximal inhibition on Aurora-A (h) (IC50) required 6 nM.

Take `Cn1cc(Nc2ncc(Cl)c(NC3CC4CN(C(=O)Nc5ccccc5)CC4C3)n2)cn1` (stereo not shown) [Ex. 28, 5-((5-chloro-2-((1-methyl-1H-pyrazol-4-yl)amino)pyrimidin-4-yl)amino)-N-phenylhexahydrocyclopenta[c]pyrrole-2(1H)-carboxamide]: in series [1], the half-life at 5 μM was 24.2 min and the CLint scaled at 5 μM is 72 mL/min/kg. In series [2], the half-life at 5 μM was 3.6 min and the CLint scaled at 5 μM is 690 mL/min/kg. Besides, in series [3], the “Clearance (CL) after iv dosing” value came out at 99.2 mL/min/kg, the F turned out to be 42.0%, the AUC(0-t) was found to be 168 ng·h/mL and the half-life is 22.8 min. Further, in series [3], the Vd was 1.99 L/kg.

With `Cn1cc(Nc2ncc(Cl)c(NC3CC4CN(C(=O)N5CCOCC5)CC4C3)n2)cn1` (stereo not shown) [Ex. 29, (5-((5-chloro-2-((1-methyl-1H-pyrazol-4-yl)amino)pyrimidin-4-yl)amino)hexahydrocyclopenta[c]pyrrol-2(1H)-yl)(morpholino)methanone], in series [1], the half-life at 5 μM is 43.2 min and the intrinsic metabolic clearance (CLint scaled) at 5 μM is 40.2 mL/min/kg. In addition, in series [2], the half-life at 5 μM is 19.8 min and the CLint scaled at 5 μM was 126 mL/min/kg. In series [3], the “Clearance (CL) after iv dosing” value worked out at 40.3 mL/min/kg, the F came out at 102.8%, the exposure AUC(0-t) worked out at 413 ng·h/mL and the half-life was 21 min. For the same compound, the Vd in series [3] came out at 1.19 L/kg.

For `Cn1cc(Nc2ncc(Cl)c(NC3CC4CN(c5ccc(C#N)nn5)CC4C3)n2)cn1` (stereo not shown) [Ex. 30, 6-(5-((5-chloro-2-((1-methyl-1H-pyrazol-4-yl)amino)pyrimidin-4-yl)amino)hexahydrocyclopenta[c]pyrrol-2(1H)-yl)pyridazine-3-carbonitrile], in series [1], the half-life at 5 μM turned out to be 24.9 min and the CLint scaled at 5 μM was 69.8 mL/min/kg. In series [2], the half-life at 5 μM was 8.07 min and the CLint scaled at 5 μM was 308 mL/min/kg. Also, in series [3], the “Clearance (CL) after iv dosing” value is 15.5 mL/min/kg, the F came out at 268.4%, the AUC(0-t) stood at 1140 ng·h/mL and the half-life is 36.6 min. Moreover, in series [3], the Vd was 0.71 L/kg.

In the case of `Cn1cc(Nc2ncc(Cl)c(NC3CC4CN(S(=O)(=O)C(C)(C)C)CC4C3)n2)cn1` (stereo not shown) [Ex. 31, N^4-(2-(tert-butylsulfonyl)octahydrocyclopenta[c]pyrrol-5-yl)-5-chloro-N^2-(1-methyl-1H-pyrazol-4-yl)pyrimidine-2,4-diamine], on Aurora-A (h), the half-maximal inhibitory concentration (IC50) was 50 nM.

The compound `O=C(NC1CC1)N1CC2CC(Nc3nc(Nc4cnn(C5CCNC5)c4)ncc3Cl)CC2C1` (stereo not shown) [Ex. 40, 5-((5-chloro-2-((1-(pyrrolidin-3-yl)-1H-pyrazol-4-yl)amino)pyrimidin-4-yl)amino)-N-cyclopropylhexahydrocyclopenta[c]pyrrole-2(1H)-carboxamide] returned an IC50 against Aurora-A (h) of 12 nM.

Regarding `CC(O)Cn1cc(Nc2ncc(Cl)c(NC3CC4CN(C(=O)NC5CC5)CC4C3)n2)cn1` (stereo not shown) [Ex. 41, 5-((5-chloro-2-((1-(2-hydroxypropyl)-1H-pyrazol-4-yl)amino)pyrimidin-4-yl)amino)-N-cyclopropylhexahydrocyclopenta[c]pyrrole-2(1H)-carboxamide], the half-life at 5 μM was determined as 73.5 min in series [1] and 43.7 min in series [2]. For the same compound, the CLint scaled at 5 μM in series [1] is 23.7 mL/min/kg; in series [2], 56.8 mL/min/kg. Besides, on Aurora-A (h), the concentration for half-maximal inhibition (IC50) was 19 nM.

Compound `CC(C)(O)Cn1cc(Nc2ncc(Cl)c(NC3CC4CN(S(=O)(=O)NC5CC5)CC4C3)n2)cn1` (stereo not shown) [Ex. 43, 5-((5-chloro-2-((1-(2-hydroxy-2-methylpropyl)-1H-pyrazol-4-yl)amino)pyrimidin-4-yl)amino)-N-cyclopropylhexahydrocyclopenta[c]pyrrole-2(1H)-sulfonamide] displayed an IC50 at Aurora-A (h) of 9 nM.

Turning to `CC(=O)N1CC2CC(CC#N)(Nc3nc(Nc4cnn(C)c4)ncc3Cl)CC2C1` (stereo not shown) [Ex. 48, 2-(2-acetyl-5-((5-chloro-2-((1-methyl-1H-pyrazol-4-yl)amino)pyrimidin-4-yl)amino)octahydrocyclopenta[c]pyrrol-5-yl)acetonitrile], in series [1], the half-life at 5 μM turned out to be 310 min and the CLint scaled at 5 μM was 5.6 mL/min/kg. For the same compound, in series [2], the half-life at 5 μM is 100 min and the CLint scaled at 5 μM was 24.8 mL/min/kg. Besides, in series [3], the “Clearance (CL) after iv dosing” value was 34.7 mL/min/kg, the F was found to be 40.7%, the area under the curve AUC(0-t) came to 485 ng·h/mL and the half-life was 43.2 min. Further, the Vd in series [3] was 0.81 L/kg.

These data come from patent publication US9938257B2 (Sunshine Lake Pharma Co., Ltd., priority 2015, dated 2018).
